# In patent publication US10004701B2, “Methods and compositions for treating infection” (UNIVERSITY OF ROCHESTER, priority 2012, dated 2018):
# Read-outs that look alike come from different tables or passages of the source.
# Assays:
# Experiment in all cases: AK assay 384-well format, Prestwick library screening
# K. pneumoniae = format: cell-based, Klebsiella pneumoniae; details: 50 μM final drug concentration; for fold induction at 50 µM: Klebsiella pneumoniae, 3 h
# P. aeruginosa = format: cell-based, Pseudomonas aeruginosa; details: 50 μM final drug concentration; for fold induction at 50 µM: Pseudomonas aeruginosa, 3 h
# [1] = test system: A. baumannii strain 98-37-09; format: cell-based, Acinetobacter baumannii; details: 50 μM final drug concentration; for fold induction at 50 µM: Acinetobacter baumannii, 983709, 3 h
# E. coli = format: cell-based, Escherichia coli; details: 50 μM final drug concentration; for fold induction at 50 µM: Escherichia coli, 3 h
# E. cloacae = format: cell-based, Enterobacter cloacae; details: 50 μM final drug concentration; for fold induction at 50 µM: Enterobacter cloacae, 3 h
# E. faecium = format: cell-based, Enterococcus faecium; details: 50 μM final drug concentration; for fold induction at 50 µM: Enterococcus faecium, 3 h
# [2] = test system: S. aureus strain USA300-0114; format: cell-based, Staphylococcus aureus; details: 50 μM final drug concentration; for fold induction at 50 µM: Staphylococcus aureus, USA300, 3 h
# [3] = 384-well format, cutoff for positive-scoring molecules 3-fold increase
# [4] = planktonic, cutoff for positive-scoring molecules 3-fold increase
# [5] = planktonic, cutoff for positive 3-fold increase
# [6] = cutoff for positive-scoring molecules 3-fold increase
molecule,measurement,setting,value
"C[C@H]1C[C@@H]2[C@H]([C@@H](O)C[C@@]3(C)[C@H]2CC[C@]3(O)C(=O)CO)[C@@]2(C)C=CC(=O)C=C12 [Methylprednisolone, 6-alpha]","AK-based Prestwick Library Screening Results, K. pneumoniae (increase in extracellular AK activity)",K. pneumoniae; [3],0.7
same,"AK-based Prestwick Library Screening Results, P. aeruginosa (increase in extracellular AK activity)",P. aeruginosa; [3],0.9
same,"AK-based Prestwick Library Screening Results, A. baumannii (increase in extracellular AK activity)",[1]; [3],0.9
same,"AK-based Prestwick Library Screening Results, E. coli (increase in extracellular AK activity)",E. coli; [3],0.8
same,"AK-based Prestwick Library Screening Results, E. cloacae (increase in extracellular AK activity)",E. cloacae; [3],1.3
same,"AK-based Prestwick Library Screening Results, E. faecium (increase in extracellular AK activity)",E. faecium; [3],1.0
same,"AK-based Prestwick Library Screening Results, S. aureus (increase in extracellular AK activity)",[2]; [3],0.8
Avermectin B1,"AK-based Prestwick Library Screening Results, K. pneumoniae (fold increase in extracellular AK activity)",K. pneumoniae; [4],0.6
same,"AK-based Prestwick Library Screening Results, P. aeruginosa (fold increase in extracellular AK activity)",P. aeruginosa; [4],0.6
same,"AK-based Prestwick Library Screening Results, A. baumannii (fold increase in extracellular AK activity)",[1]; [4],0.8
same,"AK-based Prestwick Library Screening Results, E. coli (fold increase in extracellular AK activity)",E. coli; [4],0.8
same,"AK-based Prestwick Library Screening Results, E. cloacae (fold increase in extracellular AK activity)",E. cloacae; [4],0.9
same,"AK-based Prestwick Library Screening Results, E. faecium (fold increase in extracellular AK activity)",E. faecium; [4],1.2
same,"AK-based Prestwick Library Screening Results, S. aureus (fold increase in extracellular AK activity)",[2]; [4],1.7
CCC(=O)[C@@]1(C)[C@H](C)C[C@H]2[C@@H]3CCC4=CC(=O)C=C[C@]4(C)[C@H]3[C@@H](O)C[C@@]21C [Rimexolone],fold induction at 50 µM,"K. pneumoniae; planktonic K. pneumoniae, positive cutoff 3-fold increase, read-out: AK-based Prestwick library screening result, K. pneumoniae (fold increase in extracellular AK activity)",0.8
same,fold induction at 50 µM,"P. aeruginosa; planktonic P. aeruginosa, positive cutoff 3-fold increase, read-out: AK-based Prestwick library screening result, P. aeruginosa (fold increase in extracellular AK activity)",1
same,fold induction at 50 µM,"[1]; planktonic A. baumannii, positive cutoff 3-fold increase, read-out: AK-based Prestwick library screening result, A. baumannii (fold increase in extracellular AK activity)",0.9
same,fold induction at 50 µM,"E. coli; planktonic E. coli, positive cutoff 3-fold increase, read-out: AK-based Prestwick library screening result, E. coli (fold increase in extracellular AK activity)",0.9
same,fold induction at 50 µM,"E. cloacae; planktonic E. cloacae, positive cutoff 3-fold increase, read-out: AK-based Prestwick library screening result, E. cloacae (fold increase in extracellular AK activity)",4.9
same,fold induction at 50 µM,"E. faecium; planktonic E. faecium, positive cutoff 3-fold increase, read-out: AK-based Prestwick library screening result, E. faecium (fold increase in extracellular AK activity)",0.9
same,fold induction at 50 µM,"[2]; planktonic S. aureus, positive cutoff 3-fold increase, read-out: AK-based Prestwick library screening result, S. aureus (fold increase in extracellular AK activity)",1.1
COc1c2occc2c(OC)c2c(=O)cc(C)oc12 [Khellin],fold induction at 50 µM,"K. pneumoniae; 384-well format, cutoff for positive-scoring molecules 3-fold increase, read-out: AK-based Prestwick Library Screening Results, K. pneumoniae (increase in extracellular AK activity)",0.6
same,fold induction at 50 µM,"P. aeruginosa; 384-well format, cutoff for positive-scoring molecules 3-fold increase, read-out: AK-based Prestwick Library Screening Results, P. aeruginosa (increase in extracellular AK activity)",0.7
same,fold induction at 50 µM,"[1]; 384-well format, cutoff for positive-scoring molecules 3-fold increase, read-out: AK-based Prestwick Library Screening Results, A. baumannii (increase in extracellular AK activity)",0.7
same,fold induction at 50 µM,"E. coli; 384-well format, cutoff for positive-scoring molecules 3-fold increase, read-out: AK-based Prestwick Library Screening Results, E. coli (increase in extracellular AK activity)",0.6
same,fold induction at 50 µM,"E. cloacae; 384-well format, cutoff for positive-scoring molecules 3-fold increase, read-out: AK-based Prestwick Library Screening Results, E. cloacae (increase in extracellular AK activity)",0.7
same,fold induction at 50 µM,"E. faecium; 384-well format, cutoff for positive-scoring molecules 3-fold increase, read-out: AK-based Prestwick Library Screening Results, E. faecium (increase in extracellular AK activity)",0.9
same,fold induction at 50 µM,"[2]; 384-well format, cutoff for positive-scoring molecules 3-fold increase, read-out: AK-based Prestwick Library Screening Results, S. aureus (increase in extracellular AK activity)",0.7
CN1CCCN=C1/C=C/c1cccc(O)c1.O=C(O)c1cc2ccccc2c(Cc2c(O)c(C(=O)O)cc3ccccc23)c1O [Oxantel pamoate],"AK-based Prestwick Library Screening Results, K. pneumoniae (fold increase in extracellular AK activity)",K. pneumoniae; [5],1.0
same,"AK-based Prestwick Library Screening Results, P. aeruginosa (fold increase in extracellular AK activity)",P. aeruginosa; [5],1.0
same,"AK-based Prestwick Library Screening Results, A. baumannii (fold increase in extracellular AK activity)",[1]; [5],1.1
same,"AK-based Prestwick Library Screening Results, E. coli (fold increase in extracellular AK activity)",E. coli; [5],1.1
same,"AK-based Prestwick Library Screening Results, E. cloacae (fold increase in extracellular AK activity)",E. cloacae; [5],1.8
same,"AK-based Prestwick Library Screening Results, E. faecium (fold increase in extracellular AK activity)",E. faecium; [5],1.0
same,"AK-based Prestwick Library Screening Results, S. aureus (fold increase in extracellular AK activity)",[2]; [5],1.3
C[C@]12CC[C@H]3[C@@H](CCC4=CC(=O)CC[C@@H]43)[C@@H]1CC[C@@H]2O [Nandrolone],fold induction at 50 µM,"K. pneumoniae; planktonic K. pneumoniae, […], read-out: AK-based Prestwick library screening result, K. pneumoniae (fold increase in extracellular AK activity)",0.7
same,fold induction at 50 µM,"P. aeruginosa; planktonic P. aeruginosa, […], read-out: AK-based Prestwick library screening result, P. aeruginosa (fold increase in extracellular AK activity)",0.9
same,fold induction at 50 µM,"[1]; planktonic A. baumannii, […], read-out: AK-based Prestwick library screening result, A. baumannii (fold increase in extracellular AK activity)",0.8
same,fold induction at 50 µM,"E. coli; planktonic E. coli, […], read-out: AK-based Prestwick library screening result, E. coli (fold increase in extracellular AK activity)",0.9
same,fold induction at 50 µM,"E. cloacae; planktonic E. cloacae, […], read-out: AK-based Prestwick library screening result, E. cloacae (fold increase in extracellular AK activity)",1
same,fold induction at 50 µM,"E. faecium; planktonic E. faecium, […], read-out: AK-based Prestwick library screening result, E. faecium (fold increase in extracellular AK activity)",1
same,fold induction at 50 µM,"[2]; planktonic S. aureus, […], read-out: AK-based Prestwick library screening result, S. aureus (fold increase in extracellular AK activity)",0.7
CC(=O)[N-]S(=O)(=O)c1ccc(N)cc1.O.[Na+] [Sulfacetamide sodic hydrate],"AK-based Prestwick Library Screening Results, K. pneumoniae (increase in extracellular AK activity)",K. pneumoniae; [3],0.5
same,"AK-based Prestwick Library Screening Results, P. aeruginosa (increase in extracellular AK activity)",P. aeruginosa; [3],0.5
same,"AK-based Prestwick Library Screening Results, A. baumannii (increase in extracellular AK activity)",[1]; [3],2.2
same,"AK-based Prestwick Library Screening Results, E. coli (increase in extracellular AK activity)",E. coli; [3],0.6
same,"AK-based Prestwick Library Screening Results, E. cloacae (increase in extracellular AK activity)",E. cloacae; [3],0.7
same,"AK-based Prestwick Library Screening Results, E. faecium (increase in extracellular AK activity)",E. faecium; [3],0.9
same,"AK-based Prestwick Library Screening Results, S. aureus (increase in extracellular AK activity)",[2]; [3],0.7
Colistin sulfate,"AK-based Prestwick Library Screening Results, K. pneumoniae (increase in extracellular AK activity)","K. pneumoniae; planktonic K. pneumoniae, […]",24.1
same,"AK-based Prestwick Library Screening Results, P. aeruginosa (increase in extracellular AK activity)","P. aeruginosa; planktonic P. aeruginosa, […]",23.6
same,"AK-based Prestwick Library Screening Results, A. baumannii (increase in extracellular AK activity)","[1]; planktonic A. baumannii, […]",10.0
same,"AK-based Prestwick Library Screening Results, E. coli (increase in extracellular AK activity)","E. coli; planktonic E. coli, […]",42.2
same,"AK-based Prestwick Library Screening Results, E. cloacae (increase in extracellular AK activity)","E. cloacae; planktonic E. cloacae, […]",0.7
same,"AK-based Prestwick Library Screening Results, E. faecium (increase in extracellular AK activity)","E. faecium; planktonic E. faecium, […]",1.0
same,"AK-based Prestwick Library Screening Results, S. aureus (increase in extracellular AK activity)","[2]; planktonic S. aureus, […]",0.6
CCCCC1C(=O)N(c2ccccc2)N(c2ccc(O)cc2)C1=O (stereo not drawn) [Oxyphenbutazone],"AK-based Prestwick Library Screening Results, K. pneumoniae (fold increase in extracellular AK activity)",K. pneumoniae; [6],0.5
same,"AK-based Prestwick Library Screening Results, P. aeruginosa (fold increase in extracellular AK activity)",P. aeruginosa; [6],0.5
same,"AK-based Prestwick Library Screening Results, A. baumannii (fold increase in extracellular AK activity)",[1]; [6],0.5
same,"AK-based Prestwick Library Screening Results, E. coli (fold increase in extracellular AK activity)",E. coli; [6],0.5
same,"AK-based Prestwick Library Screening Results, E. cloacae (fold increase in extracellular AK activity)",E. cloacae; [6],0.5
same,"AK-based Prestwick Library Screening Results, E. faecium (fold increase in extracellular AK activity)",E. faecium; [6],0.9
same,"AK-based Prestwick Library Screening Results, S. aureus (fold increase in extracellular AK activity)",[2]; [6],0.4
